The nature of this series: Storage stability of the crystalline form. It counts as physicochemical. The source says: The compound of the formula (I) is generally micronized and formulated in pharmacy.

Counter-ions that a name gives are not always drawn.

In the case of `C[C@H](N)C(=O)N[C@@H](C)C(=O)OCCOc1ccc(-c2c(C#N)c(SCc3csc(-c4ccc(Cl)cc4)n3)nc(N3CCCC3)c2C#N)cc1` [2-{4-[2-({[2-(4-chlorophenyl)-1,3-thiazol-4-yl]methyl}sulphanyl)-3,5-dicyano-6-(pyrrolidin-1-yl)pyridin-4-yl]phenoxy}ethyl-L-alanyl L-alaninate monohydrochloride], the stability properties entry (even at high atmospheric humidity) is listed as “very good stability properties”. Also, where the note is “storage time”, the “can be stored without any problem” value was greater than 2 years.

Values taken from patent US20180155336A1, “PROCESS FOR THE PREPARATION OF 2-{4-[2-({[2-(4-CHLOROPHENYL)-1,3-THIAZOL-4-YL]METHYL}SULFANYL)-3,5-DICYAN0-6-(PYRROLIDIN-1-YL)PYRIDIN-4-YL]PHENOXY}ETHYL-L-ALANYL-L-ALANINATE MONOHYDROCHLORIDE” (BAYER PHARMA AKTIENGESELLSCHAFT, priority 2015, published 2018).
